Laboratory results reported in PubChem BioAssay AID2060492 (Molecular Pharmacology Branch, DTP, NCI, 2025).
Values joined by “and” are separate entries in the source; they are usually repeats but may differ in a detail not shown here. Equal values may be shown once.

Test system: 695427-040-R-J1-PDC complex spheroids, viability percent T/C
Experiment: Anticancer human tumor 695427-040-R-J1-PDC patient-derived colon adenocarcinoma cell line growth inhibition [GQUAD]
Conditions: for viability, T/C: stronger effect = lower value
Source text: DNA G-quadruplex Stabilizer Agents in Combinations in Complex Spheroids
A high-throughput screen of multi-cell type tumor spheroids was designed to identify active combinations of DNA G-quadruplex stabilizer agents and targeted small molecules. Complex spheroids include a stromal component modeled by human endothelial cells (HUVEC) and fibroblasts modeled by human mesenchymal stem cells (MSCs). The concentration ranges selected for each drug and investigational agent were based upon clinically achievable concentrations if the clinical Cmax of the agent was known.
Compounds. The drugs and investigational agents: pidnarulex (CX-5461; NSC782164), APTO-253 (NSC789042), BRACO-19 (NSC847499), peposertib (NSC802822), ceralasertib (NSC780249), elimusertib (NSC800525), camonsertib (NSC841442), AZD-1390 (NSC803789), olaparib (NSC753686), talazoparib (NSC767125), ART-558 (NSC835418), sotorasib (NSC818433), MRTX-1133 (NSC836407), SN-38 (NSC673596), topotecan (NSC609699), etoposide (NSC141540), doxorubicin (NSC123127), gemcitabine (NSC613327), 5-fluorouracil (NSC19893), paclitaxel (NSC125973), vemurafenib (NSC761431), panobinostat (NSC761190), R-306465 (JNJ-16241199; NSC773264), adavosertib (NSC754352), TP-3654 (NSC805149), carboplatin (NSC241240), KSQ-4279 (NSC840948), and staurosporine (NSC755774) were obtained from the National Cancer Institute (NCI) Developmental Therapeutics Program Chemical Repository (34). The FDA-approved anticancer drug set is available from the NCI Developmental Therapeutics Program. […] The stock solutions were prepared in dimethyl sulfoxide (DMSO, Sigma-Aldrich, St. Louis, MO, cat. D2650) at 800-fold the tested concentration and stored at -70 degrees C prior to their use. All drugs and investigational agents were tested over a range starting from a high concentration at or near the clinical Cmax and decreasing in half-log increments. If the clinical Cmax for an agent had not been determined, the highest concentration tested was 10 microM.
2.3 Cell Culture. All cells were maintained in an incubator at 37 degrees C and 5% CO2 with 95% humidity. The PDC lines were cultured according to standard operating procedures established by the NCI PDMR. All PDCs were thawed and cultured in Matrigel-coated flasks prepared with a working solution of 1X Ham's F-12 nutrient mix, without supplementation (Invitrogen, cat. 11765054), 100 U/mL penicillin-streptomycin (Invitrogen, cat. 15140122), and 2.5% Matrigel (Corning Inc., cat. 354248) for the first three passages. The 857933-349-R-J2-PDC line was cultured in 6C/Colon 1B media, which includes advanced DMEM/F-12 (Thermo Fisher Scientific, cat. 12634028), 10 mM HEPES (Thermo Fisher Scientific, cat. 15630080), 1X GlutaMAX supplement (Thermo Fisher Scientific, cat. 35050061), 0.1 mg/mL primocin (InvivoGen, cat. ant-pm-2), 10% defined fetal bovine serum, heat inactivated (HyClone Laboratories Inc., cat. SH30070.03HI), 50% L-WRN conditioned media (ATCC, cat. CRL-3276), 1.25 mM N-Acetyl-L-cysteine (Sigma-Aldrich, cat. A9165), 10 mM nicotinamide (Sigma-Aldrich, cat. N0636), 1X B-27 supplement (Thermo Fisher Scientific, cat. 17504044), 1X N-2 supplement (Thermo Fisher Scientific, cat. 17502048), 10 microM Y-27632 dihydrochloride (Tocris Bioscience, cat. 1254), and 50 ng/mL human EGF recombinant protein (Thermo Fisher Scientific, cat. PHG0311). The 485176-168-R4-J1-PDC line was cultured in Panc media, which includes all 6C/Colon 1B media components plus 100 ng/mL human FGF-10 (Thermo Fisher Scientific, cat. 100-26), 500 nM SB-431542 (Selleckchem, cat. S1067), and gastrin (Tocris, cat. 3006).
[…]
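Further: spheroids exposed to compounds for seven days before readout.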

Row | SMILES | IC50 (curve of compound) | IC50 (compound alone, run of 04/22/2024) [nM] | viability, T/C (compound 0.0316 µM) | viability, T/C (compound 0.1 µM) | viability, T/C (compound 0.316 µM) | viability, T/C (compound 1 µM) | viability, T/C (compound 3.16 µM) | viability, T/C (compound 10 µM) | viability, T/C (compound 0.000999 µM) | viability, T/C (compound 0.00316 µM) | viability, T/C (compound 0.00999 µM) | viability, T/C (compound 0.0999 µM)
1 | C#Cc1c(F)ccc2cc(O)cc(-c3ncc4c(N5CC6CCC(C5)N6)nc(OCC56CCCN5CC(F)C6)nc4c3F)c12 (configuration not stated) | > 10000 nM and 1760 nM | – | 95.2% and 101% and 104% | 102% and 103% and 111% | 95.2% and 99.6% and 102% | 94.3% and 81.3% and 97.2% | 56.7% and 17.5% and 103% | 59% and 15.6% and 82.1% | – | – | – | –
2 | CC(=O)O[C@H]1C(=O)[C@@]2(C)[C@H]([C@H](OC(=O)c3ccccc3)[C@]3(O)C[C@H](OC(=O)[C@H](O)[C@@H](NC(=O)c4ccccc4)c4ccccc4)C(C)=C1C3(C)C)[C@]1(OC(C)=O)CO[C@@H]1C[C@@H]2O | – | – | 92.5% and 97.5% and 84.8% | 90.5% and 92.7% and 88.8% | 72.9% and 89.3% and 82.4% | – | – | – | – | – | – | –
3 | CC(C)(O)C1CCC(Nc2ccc3ncc(-c4cccc(C(F)(F)F)c4)n3n2)CC1 (configuration not stated) | > 10000 nM and 1720 nM and 1440 nM | – | 109% and 99.2% and 78.5% | 101% and 97.4% and 88.4% | 111% and 94.6% and 101% | 105% and 80.1% and 66.9% | 97.6% and 16% and 12.7% | 87.6% and 15.5% and 13.5% | – | – | – | –
4 | CC1COCCN1c1cc(-c2ccnn2C)c2ccnc(-c3ccn[nH]3)c2n1 (configuration not stated) | 318 nM and 979 nM and 181 nM | – | 88.2% and 92.1% and 81.5% | 71.7% and 79.9% and 54.3% | 50.6% and 61.6% and 45.6% | 34.4% and 49.4% and 35.4% | 27.7% and 46.1% and 23% | 26.8% and 40.4% and 24.8% | – | – | – | –
5 | CC1COCCN1c1cc(C2(O)CC3CCC(C2)O3)c2cnn(-c3ccn[nH]3)c2n1 (configuration not stated) | 431 nM and 993 nM and 2090 nM | – | 79.3% and 91.3% and 95% | 66.4% and 78.3% and 88.3% | 54.6% and 68.4% and 73.6% | 41.1% and 52% and 56.7% | 23.6% and 30.7% and 47.5% | 20% and 23.6% and 36.8% | – | – | – | –
6 | CC1COCCN1c1cc(C2(S(C)(=N)=O)CC2)nc(-c2ccnc3[nH]ccc23)n1 (configuration not stated) | > 10000 nM | – | 98.2% and 95.8% and 104% | 80.6% and 102% and 90.9% | 82% and 94.1% and 92.3% | 85.7% and 94.6% and 87.3% | 59.1% and 88.3% and 68.5% | 55.5% and 73.5% and 54.2% | – | – | – | –
7 | CCCS(=O)(=O)Nc1ccc(F)c(C(=O)c2c[nH]c3ncc(-c4ccc(Cl)cc4)cc23)c1F | > 10000 nM and 8300 nM | – | 96% and 108% and 99.2% | 92.3% and 101% and 87.5% | 90.3% and 110% and 114% | 79.9% and 102% and 101% | 65.4% and 116% and 103% | 58.2% and 67.2% and 40.1% | – | – | – | –
8 | CN(C)c1ccc(Nc2c3ccc(NC(=O)CCN4CCCC4)cc3nc3cc(NC(=O)CCN4CCCC4)ccc23)cc1 | – | > 10000 | 104% [middle of 12 runs] | 102% [middle of 12 runs] | 104% [middle of 12 runs] | 99.1% [middle of 12 runs] | 103% [middle of 12 runs] | 92.2% [middle of 12 runs] | – | – | – | –

Further lines, with some results ahead:

Row | IC50 (curve of compound) | IC50 (compound alone, run of 04/22/2024) [nM] | SMILES | viability, T/C (compound 0.0316 µM) | viability, T/C (compound 0.1 µM) | viability, T/C (compound 0.316 µM) | viability, T/C (compound 1 µM) | viability, T/C (compound 3.16 µM) | viability, T/C (compound 10 µM) | viability, T/C (compound 0.000999 µM) | viability, T/C (compound 0.00316 µM) | viability, T/C (compound 0.00999 µM) | viability, T/C (compound 0.0999 µM)
9 | > 10000 nM | – | C=CC(=O)N1CCN(c2nc(=O)n(-c3c(C)ccnc3C(C)C)c3nc(-c4c(O)cccc4F)c(F)cc23)C(C)C1 (configuration not stated) | 97.2% and 103% and 104% | 93.4% and 97.8% and 82.5% | 103% and 101% and 102% | 98.8% and 105% and 85.6% | 92.6% and 110% and 68.9% | 90.5% and 106% and 97.2% | – | – | – | –
10 | > 10000 nM and 3180 nM | – | C=CCn1c(=O)c2cnc(Nc3ccc(N4CCN(C)CC4)cc3)nc2n1-c1cccc(C(C)(C)O)n1 | 102% and 100% and 86.2% | 105% and 85.8% and 89.5% | 107% and 86.4% and 87.7% | 105% and 80.5% and 61.6% | 107% and 68.6% and 54.9% | 66.5% and 54.9% and 35.4% | – | – | – | –
11 | > 10000 nM | – | CC(C)n1c(=O)n(C)c2cnc3cc(F)c(-c4ccc(OCCCN5CCCCC5)nc4)cc3c21 | 97.4% and 115% and 95.5% | 102% and 97.8% and 101% | 110% and 102% and 97.8% | 118% and 115% and 110% | 74% and 109% and 84.6% | 57.9% and 69.9% and 56.8% | – | – | – | –
12 | > 316 nM | – | CC[C@@]1(O)C(=O)OCc2c1cc1n(c2=O)Cc2cc3c(CN(C)C)c(O)ccc3nc2-1 | 93.2% and 102% and 89.2% | – | 82.7% and 90.3% and 80.3% | – | – | – | 93.2% and 113% and 101% | 97.2% and 103% and 94.8% | 109% and 96.7% and 103% | 81.3% and 103% and 88.3%
13 | 175 nM and > 316 nM and 50.7 nM | – | CCc1c2c(nc3ccc(O)cc13)-c1cc3c(c(=O)n1C2)COC(=O)[C@]3(O)CC | 73.2% and 80.9% and 61% | – | 41.9% and 54.7% and 34.1% | – | – | – | 94.6% and 102% and 82.8% | 74.4% and 96.6% and 88.9% | 82.1% and 85% and 83.3% | 54.9% and 68.1% and 33.5%
